How the values were obtained:
[1] = test system: tumor necrosis factor (α); experiment: Cytokine Induction in Human Cells: tumor necrosis factor (α) by ELISA or IGEN Assay; type: cell-based; conditions: human PBMC, incubated 18 to 24 hours, tested at 30–0.014 μM; induction at ≦10 μM
Text: (§1) An in vitro human blood cell system is used to assess cytokine induction. Activity is based on the measurement of interferon and tumor necrosis factor (α) (IFN and TNF, respectively) secreted into culture media as described by Testerman et. al. In “Cytokine Induction by the Immunomodulators Imiquimod and S-27609”, Journal of Leukocyte Biology, 58, 365–372 (September, 1995).
(§2) Whole blood from healthy human donors is collected by venipuncture into EDTA vacutainer tubes. Peripheral blood mononuclear cells (PBMC) are separated from whole blood by density gradient centrifugation using Histopaque®-1077. Blood is diluted 1:1 with Dulbecco's Phosphate Buffered Saline (DPBS) or Hank's Balanced Salts Solution (HBSS). The PBMC layer is collected and washed twice with DPBS or HBSS and resuspended at 4×10^6 cells/mL in RPMI complete. The PBMC suspension is added to 48 well flat bottom sterile tissue culture plates (Costar, Cambridge, Mass. or Becton Dickinson Labware, Lincoln Park, N.J.) containing an equal volume of RPMI complete media containing test compound.
(§3) The compounds are solubilized in dimethyl sulfoxide (DMSO). The DMSO concentration should not exceed a final concentration of 1% for addition to the culture wells. The compounds are generally tested at concentrations ranging from 30–0.014 μM.
(§4) The solution of test compound is added at 60 μM to the first well containing RPMI complete and serial 3 fold dilutions are made in the wells. The PBMC suspension is then added to the wells in an equal volume, bringing the test compound concentrations to the desired range (30–0.014 μM). The final concentration of PBMC suspension is 2×10^6 cells/mL. The plates are covered with sterile plastic lids, mixed gently and then incubated for 18 to 24 hours at 37° C. in a 5% carbon dioxide atmosphere.
(§5) Following incubation the plates are centrifuged for 10 minutes at 1000 rpm (˜200×g) at 4° C. The cell-free culture supernatant is removed with a sterile polypropylene pipet and transferred to sterile polypropylene tubes. Samples are maintained at −30 to −70° C. until analysis. The samples are analyzed for interferon (a) by ELISA and for tumor necrosis factor (α) by ELISA or IGEN Assay.
Tumor necrosis factor (α) (TNF-α) concentration is determined using ELISA kits available from Biosource International, Camarillo, Calif. Alternately, the TNF-α concentration can be determined by Origen® M-Series Immunoassay and read on an IGEN M-8 analyzer from IGEN International, Gaithersburg, Md. The immunoassay uses a human TNF-α capture and detection antibody pair from Biosource International, Camarillo, Calif. Results are expressed in pg/mL.

[2] = test system: interferon (α); experiment: Cytokine Induction in Human Cells: interferon (α) by ELISA; type: cell-based; conditions: human PBMC, incubated 18 to 24 hours, tested at 30–0.014 μM; induction at ≦10 μM
Text: as §1, §2, §3, §4, §5
Interferon (α) concentration is determined by ELISA using a Human Multi-Species kit from PBL Biomedical Laboratories, New Brunswick, N.J. Results are expressed in pg/mL.

[3] = Solubility in DMSO for testing; type: physicochemical; design: key: *: the compound was not adequately soluble in DMSO to permit testing; conditions: printed as * in the cytokine columns
Procedure: as §3
Compounds of the invention were tested for their ability to induce cytokine biosynthesis using the method described above.

melting point [°C]	adequately soluble in DMSO to permit testing [3]	Structure (SMILES)	Tumor Necrosis Factor (α) [1]	Interferon (α) [2]
218.1 to 219.7	–	CCCCc1nc2c(N)nc3ccccc3c2n1CCCCNC(=O)NCCCCn1c(CCCC)nc2c(N)nc3ccccc3c21 [Example 1, N,N′-bis[4-(4-amino-2-butyl-1H-imidazo[4,5-c]quinolin-1-yl)butyl]urea]	+ (at concentrations of ≦10 μM the compound induced the indicated cytokine)	+ (at concentrations of ≦10 μM the compound induced the indicated cytokine)
160.3 to 165.6	–	CCCCc1nc2c(N)nc3ccccc3c2n1CCCCNC(=O)Nc1cccc(NC(=O)NCCCCn2c(CCCC)nc3c(N)nc4ccccc4c32)c1 [Example 2, N,N″-1,3-phenylenebis{N′-[4-(4-amino-2-butyl-1H-imidazo[4,5-c]quinolin-1-yl)butyl]urea}]	+ (at concentrations of ≦10 μM the compound induced the indicated cytokine)	+ (at concentrations of ≦10 μM the compound induced the indicated cytokine)
152.1 to 156.1	–	CCCCc1nc2c(N)nc3ccccc3c2n1CCCCNC(=O)Nc1ccc(Oc2ccc(NC(=O)NCCCCn3c(CCCC)nc4c(N)nc5ccccc5c43)cc2)cc1 [Example 3, N-[4-(4-amino-2-butyl-1H-imidazo[4,5-c]quinolin-1-yl)butyl]-N′-(4-{4-[({[4-(4-amino-2-butyl-1H-imidazo[4,5-c]quinolin-1-yl)butyl]amino}carbonyl)amino]phenoxy}phenyl)urea]	+ (at concentrations of ≦10 μM the compound induced the indicated cytokine)	+ (at concentrations of ≦10 μM the compound induced the indicated cytokine)
184.5 to 188.8	–	CCCCc1nc2c(N)nc3ccccc3c2n1CCCCNC(=O)N[C@H]1CC[C@H](NC(=O)NCCCCn2c(CCCC)nc3c(N)nc4ccccc4c32)CC1 [Example 4, N,N″-trans-1,4-cyclohexylenebis{N′-[4-(4-amino-2-butyl-1H-imidazo[4,5-c]quinolin-1-yl)butyl]urea}]	+ (at concentrations of ≦10 μM the compound induced the indicated cytokine)	+ (at concentrations of ≦10 μM the compound induced the indicated cytokine)
115 to 120	–	COCCc1nc2c(N)nc3ccccc3c2n1CCOCCNS(=O)(=O)c1cccc(S(=O)(=O)NCCOCCn2c(CCOC)nc3c(N)nc4ccccc4c32)c1 [Example 5, N,N-bis(2-{2-[4-amino-2-(2-methoxyethyl)-1H-imidazo[4,5-c]quinolin-1-yl]ethoxy}ethyl)benzene-1,3-disulfonamide]	+ (at concentrations of ≦10 μM the compound induced the indicated cytokine)	+ (at concentrations of ≦10 μM the compound induced the indicated cytokine)
–	–	COCCc1nc2c(N)nc3ccccc3c2n1CCOCCNC(=O)c1ccc(C(=O)NCCOCCn2c(CCOC)nc3c(N)nc4ccccc4c32)cc1 [Example 6, N,N′-bis(2-{2-[4-amino-2-(2-methoxyethyl)-1H-imidazo[4,5-c]quinolin-1-yl]ethoxy}ethyl)terephthalamide]	+ (at concentrations of ≦10 μM the compound induced the indicated cytokine)	+ (at concentrations of ≦10 μM the compound induced the indicated cytokine)
172.5 to 177	–	COCCc1nc2c(N)nc3ccccc3c2n1CCOCCNC(=O)NCCCCCCCCNC(=O)NCCOCCn1c(CCOC)nc2c(N)nc3ccccc3c21 [Example 7, N,N″-1,8-octanediylbis[N′-(2-{2-[4-amino-2-(methoxyethyl)-1H-imidazo[4,5-c]quinolin-1-yl]ethoxy}ethyl)urea]]	+ (at concentrations of ≦10 μM the compound induced the indicated cytokine)	+ (at concentrations of ≦10 μM the compound induced the indicated cytokine)
237 to 238	*	CCOCc1nc2c(N)nc3ccccc3c2n1CCCCCCCCCCn1c(COCC)nc2c(N)nc3ccccc3c21 [Example 8, 1-[10-(4-amino-2-ethoxymethyl-1H-imidazo[4,5-c]quinolin-1-yl)decyl]-2-ethoxymethyl-1H-imidazo[4,5-c]quinoline-4-amine]	–	–

Reference: patent publication US7112677B2, “1H-imidazo dimers” (3M Innovative Properties Company, priority 2002, dated 2006)
